Consider 20 compounds from patent US20250195511A1, “INDAZOLE DERIVATIVES USEFUL AS INHIBITORS OF NOD-LIKE RECEPTOR PROTEIN 3” (Merck Sharp & Dohme LLC, priority 2023, published 2025).

For the assay, the system named is NLRP3 inflammasome. Put plainly: NLRP3 inflammasome activation: ASC-SPECK formation in gramicidin-stimulated THP-1 cells. To be noted: PMA-treated human monocytic THP-1 cells, compound 1 h before 12.5 μg/ml gramicidin, 3-hour treatment. It counts as cell-based. An excerpt: Activation of the canonical NLRP3 inflammasome requires two steps, priming and activation. A priming signal such as a pathogen activated molecular patterns (PAMPs) or danger-activated molecular patterns (DAMPs) are recognized by Toll-like receptors leads to nuclear factor kappa B (NF-KB)-mediated signaling. […] The second step is activation which induces oligomerization of NLRP3 and subsequent assembly of NLRP3, apoptosis-associated speck-like protein containing a CARD (ASC), and procaspase-1 into an inflammasome complex. This triggers the transformation of procaspase-1 to caspase-1, and the production and secretion of mature IL-1β and IL-18 (Kim et al., J. Inflamm. 2015, 12, 41; Ozaki et al., J. Inflamm. Res. 2015, 8, 15-27; Rabeony et al., Eur. J. Immunol. 2015, 45, 2847). During inflammasome complex assembly, the oligomerization of NLRP3 triggers the nucleation of ASC and an event commonly referred to as “ASC SPECK” formation, as it is identified in the cell as a discrete puncta within the cell after staining and visualization of ASC using common immunocytochemical methods.
The ability of compounds to inhibit NLRP3 inflammasome activation was determined in vitro by monitoring formation of the ASC-SPECK in human monocytic THP-1 cells after stimulation. THP-1 cells (ATCC catalog #TIB-202) were maintained in complete growth media containing Roswell Park Memorial Institute RPMI (ATCC catalog #30-2001), 10% heat inactivated fetal bovine serum, 1× penicillin/streptomycin and 0.05 mM 2-mercaptoethanol. At the start of the assay, undifferentiated THP-1 cells were plated at a density of 20,000 cells per well in a 384-well plate (Poly-D-lysine coated Cell Carrier Ultra microplate, Perkin Elmer catalog #6057500) in complete growth media supplemented with 10 ng/ml phorbol 12-myristate 13-acetate (PMA; Sigma catalog #P8139), and then incubated overnight. The next day, media was replaced with assay media (RPMI (Gibco catalog #11875-093), 0.01% bovine serum albumin (BSA)). Compounds were serially diluted in DMSO and then added to wells one hour prior to the addition of 12.5 μg/ml Gramicidin (Enzo Lifescience, catalog #ALX-350-233-M005). All incubations were carried out at 37° C. (5% CO2/95% air). Following a 3-hour treatment with gramicidin, cells are fixed with 4% paraformaldehyde and stored at 4° C. until immunofluorescence staining.
Immunofluorescence staining: Anti-ASC antibody (MBL catalog #D086-3) was desalted and labeled with Alexa 488 antibody labeling kit (Thermo catalog #A20181) prior to use as described below. After fixation, the following steps were carried out at rt. Cells were first permeabilized with 0.3% polyethylene glycol tert-octylphenyl ether (Triton X-100) in phosphate-buffered saline (PBS) for 15 minutes and then incubated in blocking buffer containing 5% goat serum, 0.3% polyethylene glycol sorbitan monolaurate (Tween-20) and 0.03% sodium azide in PBS for 1 hour. Cells were stained with a mixture of ASC-Alexa 488 antibody (diluted 1:200 in blocking buffer) and nuclear stain DRAQ5 (1:5000 in blocking buffer, Thermo catalog #62251) in blocking buffer for 1 hour. Following a wash with 0.3% polyethylene glycol sorbitan monolaurate (Tween-20) in PBS, plates were imaged with an Opera Phenix High Content Screening System. The number of DRAQ5 positive cells containing ASC SPECKS were quantified in each well.
Data analysis: EC50 values were calculated by standard curve-fitting analysis using an internally developed program in TIBCO Spotfire software.

Where [1] appears, read: Homo sapiens, THP-1, inhibition of ASC SPECK formation.
The mark [2] stands for this setting: inhibition of ASC SPECK formation.

Take `Cc1cc(C(F)(F)F)cc(O)c1-c1cnc2cn([C@]34CCC[C@H]3OCC4)nc2n1` (mixture of isomers) [Example 21, 2-(2-((3aS,6aR and 3aR,6aS)-hexahydro-3aH-cyclopenta[b]furan-3a-yl)-2H-pyrazolo[3,4-b]pyrazin-6-yl)-3-methyl-5-(trifluoromethyl)phenol]: under setting [1], the 50% effective concentration (EC50) (in general, the midpoint of the concentration-response curve) amounted to 814 nM.
On the same count and under the same terms, then `Cc1cc(C(F)(F)F)cc(O)c1-c1cnc2cn(C3COC4(C)CC3C4)nc2n1` (racemic) [Example 19, (R and S)-3-methyl-2-(2-(1-methyl-2-oxabicyclo[3.1.1]heptan-4-yl)-2H-pyrazolo[3,4-b]pyrazin-6-yl)-5-(trifluoromethyl)phenol], with 876 nM.
Same read-out and setting: then `Cc1cc(C(F)(F)F)cc(O)c1-c1cnc2cn([C@@H]3CC[C@H](C#N)C3)nc2n1` (racemic) [Example 20, (1S,3R and 1R,3S)-3-(6-(2-hydroxy-6-methyl-4-(trifluoromethyl)phenyl)-2H-pyrazolo[3,4-b]pyrazin-2-yl)cyclopentane-1-carbonitrile], with 186 nM; and `Cc1cc(C(F)(F)F)cc(O)c1-c1cnc2cn(C3CCCOC34CCC4)nc2n1` (racemic) [Example 22, (S and R)-2-(2-(5-oxaspiro[3.5]nonan-9-yl)-2H-pyrazolo[3,4-b]pyrazin-6-yl)-3-methyl-5-(trifluoromethyl)phenol], with 202 nM.
As for `Cc1cc(C(F)(F)F)cc(O)c1-c1cnc2cn(C3CC34CCOCC4)nc2n1` (racemic) [Example 23, (S and R)-2-(2-(6-oxaspiro[2.5]octan-1-yl)-2H-pyrazolo[3,4-b]pyrazin-6-yl)-3-methyl-5-(trifluoromethyl)phenol], the EC50 under setting [1] stood at 461 nM.
As for `Cc1cc(C(F)(F)F)cc(O)c1-c1cnc2cn(C34CC(C)(C3)OC4C)nc2n1` (racemic) [Example 24, (S and R)-2-(2-(1,3-dimethyl-2-oxabicyclo[2.1.1]hexan-4-yl)-2H-pyrazolo[3,4-b]pyrazin-6-yl)-3-methyl-5-(trifluoromethyl)phenol], the EC50 under setting [1] is 427 nM.
`Cc1cc(C(F)(F)F)cc(O)c1-c1cnc2cn(C3COC4CC3C4)nc2n1` (racemic) [Example 25, (S and R)-2-(2-(2-oxabicyclo[3.1.1]heptan-4-yl)-2H-pyrazolo[3,4-b]pyrazin-6-yl)-3-methyl-5-(trifluoromethyl)phenol]: the EC50 under setting [1] came out at 261 nM.
With `COc1ccc(CN2CC(n3nc4nc(-c5c(C)cc(C(F)(F)F)cc5O)cnc4c3C)CCC2=O)cc1` (racemic) [Example 107, (R and S)-5-(6-(2-hydroxy-6-methyl-4-(trifluoromethyl)phenyl)-3-methyl-2H-pyrazolo[3,4-b]pyrazin-2-yl)-1-(4-methoxybenzyl)piperidin-2-one], under setting [1], the 50% effective concentration (EC50) is 279 nM.
For `Cc1cc(C(F)(F)F)cc(O)c1-c1cnc2cn([C@@H]3C[C@@H]4C[C@H]3CO4)nc2n1` (single isomer, unassigned) [Example 3, 2-(2-((1S,4R,5R or 1R,4S,5S)-2-oxabicyclo[2.2.1]heptan-5-yl)-2H-pyrazolo[3,4-b]pyrazin-6-yl)-3-methyl-5-(trifluoromethyl)phenol], under setting [2], the EC50 came out at 35 nM.
Still for that read-out and setting: then `Cc1cc(C(F)(F)F)cc(O)c1-c1cnc2cn([C@H]3C[C@H]4C[C@@H]3CO4)nc2n1` (single isomer, unassigned) [Example 4, 2-(2-((1R,4S,5S or 1S,4R,5R)-2-oxabicyclo[2.2.1]heptan-5-yl)-2H-pyrazolo[3,4-b]pyrazin-6-yl)-3-methyl-5-(trifluoromethyl)phenol], with 34 nM.
With `Cc1cc(C(F)(F)F)cc(O)c1-c1cnc2cn(C3C4CS(=O)(=O)CC43)nc2n1` (single isomer, unassigned) [Example 53, (1R,5S,6S or 1R,5S,6R)-6-(6-(2-hydroxy-6-methyl-4-(trifluoromethyl)phenyl)-2H-pyrazolo[3,4-b]pyrazin-2-yl)-3-thiabicyclo[3.1.0]hexane 3,3-dioxide], the concentration for a half-maximal effect (EC50) under setting [2] came to 981 nM.
`Cc1cc(C(F)(F)F)cc(O)c1-c1cnc2cn(C3C4CS(=O)(=O)CC43)nc2n1` (single isomer, unassigned) [Example 54, (1R,5S,6R or 1R,5S,6S)-6-(6-(2-hydroxy-6-methyl-4-(trifluoromethyl)phenyl)-2H-pyrazolo[3,4-b]pyrazin-2-yl)-3-thiabicyclo[3.1.0]hexane 3,3-dioxide]: the EC50 under setting [2] is 98 nM.
Same read-out and setting: then `Cc1cc(C(F)(F)F)cc(O)c1-c1cnc2cn(CC3CC(=O)N(C)C3)nc2n1` (single isomer, unassigned) [Example 58, (R or S)-4-((6-(2-hydroxy-6-methyl-4-(trifluoromethyl)phenyl)-2H-pyrazolo[3,4-b]pyrazin-2-yl)methyl)-1-methylpyrrolidin-2-one], with 298 nM; and `Cc1cc(C(F)(F)F)cc(O)c1-c1cnc2cn(CC3CC(=O)N(C)C3)nc2n1` (single isomer, unassigned) [Example 59, (S or R)-4-((6-(2-hydroxy-6-methyl-4-(trifluoromethyl)phenyl)-2H-pyrazolo[3,4-b]pyrazin-2-yl)methyl)-1-methylpyrrolidin-2-one], with 20 nM; and `Cc1cc(C(F)(F)F)cc(O)c1-c1cnc2cn(C3CCC(=O)N(C(C)C)C3)nc2n1` (single isomer, unassigned) [Example 60, (R or S)-5-(6-(2-hydroxy-6-methyl-4-(trifluoromethyl)phenyl)-2H-pyrazolo[3,4-b]pyrazin-2-yl)-1-isopropylpiperidin-2-one], with 7 nM.
In the case of `Cc1cc(C(F)(F)F)cc(O)c1-c1cnc2cn(C3CCC(=O)N(C(C)C)C3)nc2n1` (single isomer, unassigned) [Example 61, (S or R)-5-(6-(2-hydroxy-6-methyl-4-(trifluoromethyl)phenyl)-2H-pyrazolo[3,4-b]pyrazin-2-yl)-1-isopropylpiperidin-2-one], the EC50 under setting [2] was 101 nM.
On the same count and under the same terms, in the case of `Cc1cc(C(F)(F)F)cc(O)c1-c1cnc2cn(CC3CC(=O)N(C4CC4)C3)nc2n1` (single isomer, unassigned) [Example 62, (R or S)-1-cyclopropyl-4-((6-(2-hydroxy-6-methyl-4-(trifluoromethyl)phenyl)-2H-pyrazolo[3,4-b]pyrazin-2-yl)methyl)pyrrolidin-2-one] it was 291 nM; in that of `Cc1cc(C(F)(F)F)cc(O)c1-c1cnc2cn(CC3CC(=O)N(C4CC4)C3)nc2n1` (single isomer, unassigned) [Example 63, (S or R)-1-cyclopropyl-4-((6-(2-hydroxy-6-methyl-4-(trifluoromethyl)phenyl)-2H-pyrazolo[3,4-b]pyrazin-2-yl)methyl)pyrrolidin-2-one], 12 nM; in that of `CCN1CC(n2cc3ncc(-c4c(C)cc(C(F)(F)F)cc4O)nc3n2)CCC1=O` (single isomer, unassigned) [Example 64, (R or S)-1-ethyl-5-(6-(2-hydroxy-6-methyl-4-(trifluoromethyl)phenyl)-2H-pyrazolo[3,4-b]pyrazin-2-yl)piperidin-2-one], 10 nM.
Still for that read-out and setting: in the case of `CCN1CC(n2cc3ncc(-c4c(C)cc(C(F)(F)F)cc4O)nc3n2)CCC1=O` (single isomer, unassigned) [Example 65, (S or R)-1-ethyl-5-(6-(2-hydroxy-6-methyl-4-(trifluoromethyl)phenyl)-2H-pyrazolo[3,4-b]pyrazin-2-yl)piperidin-2-one] it was 79 nM.
